Assay results: ChEMBL document CHEMBL1949518, “Synthesis and biological evaluation of some new 2-pyrazolines bearing benzene sulfonamide moiety as potential anti-inflammatory and anti-cancer agents” (Eur J Med Chem, 2011)

How the values were obtained:
[1] = system: EKVX; test: Anticancer activity against human EKVX cells after 48 hrs by SRB assay; type: functional
[2] = system: OVCAR-3; test: Anticancer activity against human OVCAR3 cells after 48 hrs by SRB assay; type: functional; conditions: OVCAR-3, 48 h
[3] = system: Mus musculus; test: Toxicity in Swiss albino mouse assessed as behavioral change at 100 mg/kg, po measured up to 24 hrs; type: organism-based; set-up: dose 100 mg/kg, route oral; conditions: in vivo
[4] = system: SN12C; test: Anticancer activity against human SN12C cells after 48 hrs by SRB assay; type: functional; conditions: for CC50: read-out: LC50 (the source's name)
[5] = system: U-251; test: Anticancer activity against human U251 cells after 48 hrs by SRB assay; type: functional; conditions: U-251, 48 h
[6] = system: Mus musculus; test: Toxicity in Swiss albino mouse assessed as mortality at 100 mg/kg, po measured up to 24 hrs; type: organism-based; set-up: dose 100 mg/kg, route oral; conditions: in vivo
[7] = system: SF-268; test: Anticancer activity against human SF268 cells after 48 hrs by SRB assay; type: functional; conditions: SF-268, 48 h; for CC50: read-out: LC50 (the source's name)
[8] = system: CCRF-CEM; test: Anticancer activity against human CCRF-CEM cells after 48 hrs by SRB assay; type: functional; conditions: for CC50: read-out: LC50 (the source's name)
[9] = system: Rattus norvegicus; test: Ulcerogenic activity in fasted Wistar albino rat at 60 mg/kg, po administered as 3 dose measured after 6 hrs post last dose; type: toxicity, organism-based; set-up: dose 60 mg/kg, route oral; conditions: in vivo
[10] = system: HT-29; test: Anticancer activity against human HT-29 cells after 48 hrs by SRB assay; type: functional; conditions: HT-29, 48 h
[11] = system: T47D; test: Anticancer activity against human T47D cells after 48 hrs by SRB assay; type: functional; conditions: for CC50: read-out: LC50 (the source's name)
[12] = system: UO-31; test: Anticancer activity against human UO31 cells after 48 hrs by SRB assay; type: functional; conditions: UO-31, 48 h; for CC50: read-out: LC50 (the source's name)
[13] = system: HCT-15; test: Anticancer activity against human HCT15 cells after 48 hrs by SRB assay; type: functional; conditions: HCT-15, 48 h
[14] = system: RXF 393; test: Anticancer activity against human RXF393 cells after 48 hrs by SRB assay; type: functional; conditions: RXF 393, 48 h; for CC50: read-out: LC50 (the source's name)
[15] = system: OVCAR-8; test: Anticancer activity against human OVCAR8 cells after 48 hrs by SRB assay; type: functional; conditions: OVCAR-8, 48 h; for CC50: read-out: LC50 (the source's name)
[16] = molecular target: Prostaglandin G/H synthase 1 (Bos taurus, UniProt O62664); test: Inhibition of bovine COX1 assessed as PGE2 formation preincubated for 10 mins by ELISA
Sequence of Prostaglandin G/H synthase 1 (O62664 whole entry): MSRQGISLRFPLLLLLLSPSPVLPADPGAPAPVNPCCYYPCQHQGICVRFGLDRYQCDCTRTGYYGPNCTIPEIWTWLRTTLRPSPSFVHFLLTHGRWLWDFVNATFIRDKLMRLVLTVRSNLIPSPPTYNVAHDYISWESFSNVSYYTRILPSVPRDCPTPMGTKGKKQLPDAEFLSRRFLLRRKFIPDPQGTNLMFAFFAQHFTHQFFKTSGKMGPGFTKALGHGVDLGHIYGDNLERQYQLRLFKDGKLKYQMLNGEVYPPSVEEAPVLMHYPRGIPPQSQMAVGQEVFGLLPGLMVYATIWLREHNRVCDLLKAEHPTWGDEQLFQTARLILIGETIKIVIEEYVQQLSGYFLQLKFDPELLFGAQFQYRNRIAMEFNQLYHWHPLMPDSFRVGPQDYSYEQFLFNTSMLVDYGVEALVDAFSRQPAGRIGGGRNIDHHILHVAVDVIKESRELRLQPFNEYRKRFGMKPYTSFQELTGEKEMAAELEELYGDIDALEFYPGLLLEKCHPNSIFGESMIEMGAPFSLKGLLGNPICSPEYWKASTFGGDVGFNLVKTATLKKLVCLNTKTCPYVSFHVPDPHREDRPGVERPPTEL

[17] = system: SK-OV-3; test: Anticancer activity against human SKOV3 cells after 48 hrs by SRB assay; type: functional; conditions: SK-OV-3, 48 h; for CC50: read-out: LC50 (the source's name)
[18] = system: SNB-75; test: Anticancer activity against human SNB75 cells after 48 hrs by SRB assay; type: functional; conditions: SNB-75, 48 h
[19] = system: SK-MEL-2; test: Anticancer activity against human SK-MEL-2 cells after 48 hrs by SRB assay; type: functional; conditions: SK-MEL-2, 48 h
[20] = system: M14; test: Anticancer activity against human M14 cells after 48 hrs by SRB assay; type: functional; conditions: M14, 48 h; for CC50: read-out: LC50 (the source's name)
[21] = system: HCT-116; test: Anticancer activity against human HCT116 cells after 48 hrs by SRB assay; type: functional; conditions: HCT-116, 48 h
[22] = system: RPMI-8226; test: Anticancer activity against human RPMI8226 cells after 48 hrs by SRB assay; type: functional; conditions: RPMI-8226, 48 h

## Cc1cc(O)c(C2=NN(c3ccc(S(N)(=O)=O)cc3)C(c3ccc(Cl)cc3)C2)c(C)c1Cl (centres undefined)
[1]
  GI50: 13.3 µM
  TGI: 36.1 µM
[2]
  GI50: 17.8 µM
  TGI: 33.3 µM
[3]
  Activity: Non-toxic
[4]
  GI50: 9.62 µM
  TGI: 24.9 µM
  CC50: 63 µM
[5]
  GI50: 11.8 µM
  TGI: 26.9 µM
[6]
  Activity: Non-toxic
[7]
  GI50: 18.7 µM
  TGI: 37.2 µM
  CC50: 73.9 µM
[8]
  GI50: 15.1 µM
  TGI: 43.5 µM
  CC50: 100 µM
[9]
  Activity: Non-toxic
[10]
  GI50: 10.9 µM
  TGI: 25.8 µM
[11]
  GI50: 5.72 µM
  TGI: 19.7 µM
  CC50: 51.4 µM
[12]
  GI50: 12.7 µM
  TGI: 29.4 µM
  CC50: 68.1 µM
[13]
  GI50: 14.2 µM
  TGI: 32 µM
[14]
  GI50: 24.5 µM
  TGI: 59.1 µM
  CC50: 100 µM
[15]
  GI50: 27.3 µM
  TGI: 100 µM
  CC50: 100 µM
[16]
  IC50: 89.5 µM
[17]
  GI50: 27.4 µM
  TGI: 90.8 µM
  CC50: 100 µM
[18]
  GI50: 17 µM
  TGI: 42.2 µM
[19]
  GI50: 21.4 µM
  TGI: 43.6 µM
[20]
  GI50: 14 µM
  TGI: 29.4 µM
  CC50: 61.5 µM

## Cc1cc(O)c(C2=NN(c3ccc(S(N)(=O)=O)cc3)C(c3ccc(N(C)C)cc3)C2)c(C)c1Cl (centres undefined)
[1]
  GI50: 1.88 µM
  LC50 (concentration killing 50% of cells): 59.3 µM
  TGI: 13.6 µM
[2]
  GI50: 4.21 µM
  LC50 (concentration killing 50% of cells): 39.6 µM
  TGI: 15.7 µM
[4]
  GI50: 5.71 µM
  TGI: 19.2 µM
  CC50: 43.9 µM
[5]
  GI50: 3.34 µM
  LC50: 53.7 µM
  TGI: 13.5 µM
[7]
  GI50: 5.76 µM
  TGI: 19.4 µM
  CC50: 48.9 µM
[8]
  GI50: 3.64 µM
  TGI: 13.5 µM
  CC50: 44.4 µM
[10]
  GI50: 3.3 µM
  LC50: 37.6 µM
  TGI: 11 µM
[11]
  GI50: 2.93 µM
  TGI: 14.9 µM
  CC50: 49.8 µM
[12]
  GI50: 3.78 µM
  TGI: 19.2 µM
  CC50: 52.3 µM
[13]
  GI50: 5.48 µM
  LC50 (concentration killing 50% of cells): 57 µM
  TGI: 20.8 µM
[14]
  GI50: 5.83 µM
  TGI: 21.2 µM
  CC50: 58.9 µM
[15]
  GI50: 5.75 µM
  TGI: 21.6 µM
  CC50: 66.4 µM
[21]
  GI50: 3.47 µM
  LC50 (concentration killing 50% of cells): 36 µM
  TGI: 12.9 µM
[17]
  GI50: 7.75 µM
  TGI: 20.6 µM
  CC50: 4.54 µM
[18]
  GI50: 10.9 µM
  LC50: 51.2 µM
  TGI: 23.7 µM
[22]
  GI50: 3.99 µM
  LC50: 22.3 µM
  TGI: 5.02 µM
[19]
  GI50: 11.9 µM
  LC50: 64 µM
  TGI: 27.6 µM
[20]
  GI50: 2.62 µM
  TGI: 10.4 µM
  CC50: 32.2 µM
